Measurements reported in patent US20240374535A1, “COMPOSITIONS AND METHODS FOR TREATING BIOFILM DISORDERS AND INFECTIONS” (AHV International B.V., priority 2021, published 2024).

Tests used:
[1] = system: Staphylococcus epidermis ATCC 35984 biofilm; test: MBIC assay (biofilm inhibition, crystal violet); type: cell-based, S. epidermidis; settings: 48 h incubation, absorbance 540 nm
Description: The exact weighed amount was noted and the volume of solvent to reach a 80 mM dilution calculated. Half of the volume was added first, by adding Tween 80. In a second step, the other half of the volume DMSO was added and the closed tube inverted 5-10 times and then vortexed very thoroughly for at least 30 seconds. If after this procedure unsolved material was still visible, the tube was placed in a shaker at 37° C. at 150 rpm for at least 30 minutes. […] For the MBEC assay (method 1.3) the solution needs to be diluted to a final concentration of 2 mM in 0.9% saline solution and then further diluted to 1 mM, 0.5 mM, 0.25 mM and 0.125 mM in saline. Those dilutions were added as treatment to the 96 well plates with the grown biofilm (see method 3).
Frozen aliquots of Staphylococcus epidermis ATCC 35984 and Pseudomonas aeruginosa ATCC 27853 were used to inoculate a tryptic soy agar (TSA) plate and were incubated overnight at 37° C. After incubation 3-5 well-isolated colonies with the same morphology were selected from the TSA plate and resuspended in 2 mL 0.9% saline solution with 3-6 glass beads and vortexed. The optical density of the bacterial suspension was measured at 600 nm (OD600) with a spectrophotometer (Evolution™ 201/220 UV-Visible Spectrophotometer, Thermo Fisher Scientific) and diluted to an OD600 of 0.2. The MBIC assay was performed in a 96-microtiter plate. 50 μL of TSB was added into columns 2-11, and 100 μL to column 12 for sterility control. 100 μL of the 8 mM test compound solution (method 1) was added to column 1. A two-fold dilution series of the solution in TSB was achieved by resuspending 50 μL of the 8 mM solution from column 1 in column 2. This step was repeated until column 10. The respective concentration of Tween 80 and DMSO in column 1 is at 2.5%, which is two-fold diluted throughout the plate. 50 μL of the bacterial suspension was added to column 1-11. The microtiter plates were sealed with adhesive polyethylene film for sealing microplates (Diversified Biotech) and incubated for 48 h at 37° C. After incubation the supernatant is carefully removed and the well with the biofilm washed for one time with 100 μL 0.9% saline solution. 100 μL 0.1 M HCl was added and incubated for 1 h at room temperature to fix the biofilm. After incubation the HCl was removed and 100 μL crystal violet (0.1% v/v in water) was added and incubated for 30 min at room temperature. The unbound crystal violet was removed and the wells washed one time with 100 μL demineralized water. 100 μL 30% acetic acid was added and incubated for 1 h at 37° C. and 150 rpm. The solution was resuspended and transferred to a flat-bottom 96-well plate and the absorbance measured at 540 nm with the spectrophotometer. This assay was repeated two times in two independent experiments.

[2] = system: Pseudomonas aeruginosa ATCC 27853; test: MIC assay (planktonic growth inhibition, OD600); type: cell-based, P. aeruginosa; settings: 24 h at 37° C.
Summary of the method: (§1)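 Broth microdilution in MHB-II, two-fold series from 8 mM stock solution (Tween 80/DMSO co-diluted, 2.5% in top well). Inoculum from overnight TSA colonies adjusted to OD600 0.0008 (~10^6 CFU/mL); 24 h at 37° C., growth read as OD600; three independent experiments.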

[3] = system: cows with a SCC of more as 250.000 cells/ml; test: In vivo mastitis test: somatic cell count (SCC) in milk after a single oral tablet; parameters: species or system cow; settings: single oral tablet (10 g), 60 days, FIG. 1
Description: Experiments were performed to examine the effect of compounds on the cell count or somatic cell count (SCC) in milk.
Somatic cell counts (SCC) is related to the amount of pathogens that are in the quarter visible for the immune system. The cell count of each cow was measured with the milk production registration (MPR). This MPR is done periodically every 30-40 days at all farms. The Somatic Cell Count (SCC) is a main indicator of milk quality. The majority of somatic cells are leukocytes (white blood cells)—which become present in increasing numbers in milk usually as an immune response to a mastitis-causing pathogen—and a small number of epithelial cells, which are milk-producing cells shed from inside of the udder when an infection occurs.
The SCC data was extracted from milk production registrations (MPRs). MPRs are databases showing all details (e.g. SCC) of the produced milk per individual cow. MPRs of the selected farms were available periodically. SCC is quantified as the number of cells per ml of milk. In general terms: an individual cow with a value for SCC of 100,000 or less indicates an ‘uninfected’ cow and there were no significant production losses due to subclinical mastitis. A threshold SCC above 250,000 indicates infection and counts between 100,000 to 250,000 indicate a high risk of infection.
The experiments were performed on a farm with 90 cows. Examination was performed on cell count with the above described tablets during 60 days.
Cows with a SCC of more as 250.000 cells/ml before treatment were selected for administration of a single tablet.

[4] = system: Staphylococcus epidermis ATCC 35984; test: MIC assay (planktonic growth inhibition, OD600); type: cell-based, S. epidermidis; settings: 24 h at 37° C.
Summary of the method: as §1

[5] = minimal concentration reducing final OD600 by 50%
[6] = minimal concentration reducing final OD600 by 90%

SMILES | S. epidermidis MBIC90 [1] | IC50 ([2]; Pseudomonas aeruginosa, ATCC27853, minimal concentration reducing final OD600 by 50%, read-out: P. aeruginosa MIC50) | IC90 ([2]; Pseudomonas aeruginosa, ATCC27853, minimal concentration reducing final OD600 by 90%, read-out: P. aeruginosa MIC90) | somatic cell count (SCC) of milk [3] | IC50 ([4]; minimal concentration reducing final OD600 by 50%, read-out: S. epidermidis MIC50) | IC90 ([4]; minimal concentration reducing final OD600 by 90%, read-out: S. epidermidis MIC90) | P. aeruginosa MIC50 [2, 5] | P. aeruginosa MIC90 [2, 6] | S. epidermidis MIC50 [4, 5] | S. epidermidis MIC90 [4, 6]
CCCS[S+]([O-])CCC (stereo not drawn) [Di-n-propyl thiosulfinate, S-propyl propane-1-sulfinothioate] | >4 mM | 1000 µM | 2000 µM | significantly decreased | 250 µM | 500 µM | – | – | – | –
CSS(C)(=O)=O [Di-methyl thiosulfonate, methyl methane thiosulfonate] | >4 mM | – | – | significantly decreased | – | – | 250 µM | 500 µM | 250 µM | 250 µM
